The numbers were not newly measured in US20070021605A1, “PROCESS AND COMPOSITION FOR MAKING OLANZAPINE FORM I” (priority 2005, published 2007), which cites them from elsewhere.

For this series the following is noted: water, pH 6.8; free base.

For the compound `Cc1cc2c(s1)Nc1ccccc1N=C2N1CCN(C)CC1` [Olanzapine], the solubility result is recorded as “about 0.02 mg/ml”.
